# Test results as given in US7691841B2, “Azetidine derivatives as CCR-3 receptor antagonist” (Novartis AG, priority 2004, dated 2010).
# Target: T1, human CCR-3 (Homo sapiens, UniProt P51677)
# T1 construct: expressed in transfected cells; host or cells: rat basophil leukaemia (RBL-2H3) cells, membranes
# T1 sequence (P51677 1-355): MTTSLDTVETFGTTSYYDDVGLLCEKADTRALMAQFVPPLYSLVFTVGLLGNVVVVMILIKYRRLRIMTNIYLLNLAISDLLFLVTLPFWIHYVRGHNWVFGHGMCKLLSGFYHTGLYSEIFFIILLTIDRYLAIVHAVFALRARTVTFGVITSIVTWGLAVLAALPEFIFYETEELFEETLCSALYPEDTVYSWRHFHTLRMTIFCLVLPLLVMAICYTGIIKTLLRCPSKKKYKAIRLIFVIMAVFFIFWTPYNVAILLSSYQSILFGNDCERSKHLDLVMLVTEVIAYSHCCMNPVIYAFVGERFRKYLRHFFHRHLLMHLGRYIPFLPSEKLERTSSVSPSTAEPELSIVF
# Experiment: binding of [125I]-human eotaxin to human CCR-3 (SPA assay)
# Settings: membranes of RBL-2H3 cells stably expressing CCR3; 50 pM [125I]-human eotaxin; 4 hours at room temperature; read-out: IC50 (concentration of test compound at which 50% inhibition of eotaxin binding occurs)
# Description: Compounds of formula I and their pharmaceutically acceptable salts are useful as pharmaceuticals. In particular, they inhibit human chemokine receptor CCR-3. The effect of compounds of the formula I, i.e. agents of the invention, on the binding of human eotaxin to human CCR-3 is determined by the following assay:
# Recombinant cells expressing human CCR-3 are captured by wheatgerm agglutinin (WGA) polyvinyltoluidene (PVT) SPA beads (available from Marshal), through a specific interaction between the WGA and carbohydrate residues of glycoproteins on the surface of the cells. [^125I]-human eotaxin (available from Amersham) binds specifically to CCR-3 receptors bringing the [^125I]-human eotaxin in close proximity to the SPA beads. Emitted â-particles from the [^125I]-human eotaxin excite, by its proximity, the fluorophore in the beads and produce light.
# Preparation of Assay Buffer: 5.96 g HEPES and 7.0 g sodium chloride are dissolved in distilled water and 1 M aqueous CaCl2 (1 ml) and 1M aqueous MgCl2 (5 ml) are added. The pH is adjusted to 7.6 with NaOH and the solution made to a final volume of 1 l using distilled water. 5 g bovine serum albumin and 0.1 g sodium azide are then dissolved in the solution and the resulting buffer stored at 4° C. A COMPLETE™ protease inhibitor cocktail tablet (available from Boehringer) is added per 50 ml of the buffer on the day of use.
# Preparation of Homogenisation Buffer: Tris-base (2.42 g) is dissolved in distilled water, the pH of the solution is adjusted to 7.6 with hydrochloric acid and the solution is diluted with distilled water to a final volume of 1 l. The resulting buffer is stored at 4° C. A COMPLETE™ protease inhibitor cocktail tablet is added per 50 ml of the buffer on the day of use. […]
# The assay is performed in a final volume of 250 μl per well of an OPTIPLATE™ microplate (ex Canberra Packard). […] The resulting scintillations are counted using a Canberra Packard TopCount, each well being counted for 1 minute. […]
row,IC50 [nM],SMILES
1,198,"CCOc1ccc2nc(SCC(=O)NCC3CN(Cc4ccc(Cl)c(Cl)c4)C3)sc2c1 [Example 8, N-[1-(3,4-Dichloro-benzyl)-azetidin-3-yl-methyl]-2-(6-ethoxy-benzothiazol-2-ylsulfanyl)-acetamide]"
2,420,Cc1cc(C(=O)NCC(=O)NCC2CN(Cc3ccc(Cl)c(Cl)c3)C2)c(C)n1Cc1ccncc1 [Example 7]
3,297,O=C(CNC(=O)c1ccc(Cl)cc1)NCC1CN(Cc2ccc(Cl)c(Cl)c2)C1 [Example 5]
